Assay results as given in patent publication US8884013B2, “Polymorphs of Dasatinib, preparation methods and pharmaceutical compositions thereof” (Nan Jing Cavendish Bio-Engineering Technology Co., Ltd., priority 2010, dated 2014).
“Also recorded” adds a separate entry of the source.

How the values were obtained:
Format in all cases: physicochemical
[1] = Photostability test (4500 ± 500 Lx); details: for Appearance / Content / Related substance: 4500 ± 500lx
Excerpt: (§1) The conditions and methods of related substance test involved in this invention was in accordance with HPLC (Appendix VD of Chinese Pharmacopoeia, Vol. II, (2005)).
(§2) Chromatographic conditions and system applicability:
(§3) octadecylsilane bonded silica as the filler; 0.05 mol/L of potassium dihydrogen phosphate (adjusted to pH 2.5 by phosphoric acid)-methanol (45:55) as the mobile phase; detection wavelength was 230 nm; the number of theoretical plates should be not less than 2000, calculated according to the peak area of Dasatinib. The resolution of the peak of Dasatinib from the peaks of adjacent impurities should meet requirements.
(§4) Test Method: the sample was weight and dissolved into mobile phase to be the solution containing 0.5 mg per mL, and 20 μL of this solution was taken and injected into liquid chromatography. Chromatogram was recorded until it is 6 times as the retention time of the main peak.
(§5) The Polymorph I of Dasatinib monohydrate was distributed homogeneously in open petri dish with the thickness of the raw material not more than 5 mm, and the distance was adjusted to make illumination intensity at 4500±500 Lx. Sample was tested at the 5th and 10th day respectively and the results were contrasted with that of the Day 0. Results were listed in Tab. 2.
as §5, with “II” for “I”, “Dasatinib” for “Dasatinib monohydrate”, “7.” for “2.”

[2] = High temperature test (60° C.); details: for Change of appearance in high temperature test (in words) / Change of content in high temperature test (in words): summary of 10-day test
Excerpt: as §1, §2, §3, §4
2.2 High Temperature Test
The raw material of Polymorph I of Dasatinib monohydrate was put into a clean sealed glass bottle and then put in thermostatic drying chamber at 60° C. Sample was tested at the 5th and 10th day respectively and the results were contrasted with that of the Day 0. Results were listed in Tab. 3.
The raw material of Polymorph II of Dasatinib was put into a clean sealed glass bottle and then put in thermostatic drying chamber at 60° C. Sample was tested at the 5th and 10th day respectively and the results were contrasted with that of the Day 0. Results were listed in Tab. 8.

[3] = Accelerated test (40° C. and 75% relative humidity); details: for Appearance / Content / Related substances: 40° C., 75% relative humidity; for Physical and chemical characteristic in accelerated test (in words): summary of six-month test
Excerpt: as §1, §2, §3, §4
(§6) The raw material of Polymorph I of Dasatinib was hermetically packed in plastic bags of polyethylene film and put in thermostatic and humidostatic incubator at 40±2° C. and 75±5% relative humidity for six months. Sample was tested at the end of the 1st, 2nd, 3rd and 6th month respectively and the results were contrasted with that of the zeroth month. Results were listed in Tab. 5.
as §6, with “II” for “I”, “10.” for “5.”

[4] = Observation test of long-term sample storage
[5] = Stability of polymorph in the formulations (XRPD and relative substances after formulation); details: for Change of relative substances of bulk drug in the formulation (in words): after formulation into capsules or tablets; for Change of crystalline form after being formulated: capsules or tablets, XRPD
Excerpt: Stability of Polymorph in the Formulations
The XRPD patterns of capsules and tablets respectively prepared in the Example 3 and Example 4 have been tested, and compared with XRPD characteristic peaks of Polymorph I of Dasatinib prepared by the Method A in the Example 1 in the present invention, as listed in the following table:
In addition, The relative substances of capsules and tablets respectively prepared in the Example 3 and Example 4 have been tested, and compared with those of Polymorph I of Dasatinib prepared by the Method A in the Example 1 in the present invention, as listed in the following table: […]

[6] = Loss and regain of crystal water (sealed with strong dehydrating agent, then air)

Cc1nc(Nc2ncc(C(=O)Nc3c(C)cccc3Cl)s2)cc(N2CCN(CCO)CC2)n1 [Polymorph I, N-(2-chloro-6-methylphenyl)-2-[[6-[4-(2-hydroxyethyl)-1-piperazinyl]-2-methyl-4-pyrimidyl]amino]-5-thiazolformamide]
Appearance ([1]; day 0): white powder
Content ([1]; day 0): 99.7%
Related substance ([1]; day 0): 0.07%
Appearance ([1]; day 5): white powder
Content ([1]; day 5): 99.6%
Related substance ([1]; day 5): 0.21%
Appearance ([1]; day 10): white powder
Content ([1]; day 10): 99.4%
Related substance ([1]; day 10): 0.34%
Change of content in photostability test (in words) ([1]; summary of 10-day test): of some drop
Change of related substances in photostability test (in words) ([1]; summary of 10-day test): increased slightly
Appearance ([2]; day 0): white powder
Content ([2]; day 0): 99.8%
Related substance ([2]; day 0): 0.06%
Appearance ([2]; day 5): white powder
Content ([2]; day 5): 99.7%
Related substance ([2]; day 5): 0.09%
Appearance ([2]; day 10): white powder
Content ([2]; day 10): 99.5%
Related substance ([2]; day 10): 0.12%
Change of appearance in high temperature test (in words) [2]: few obvious change
Change of content in high temperature test (in words) [2]: went down marginally
Appearance ([3]; month 0): white powder
Content ([3]; month 0): 99.7%
Related substances ([3]; month 0): 0.07%
Appearance ([3]; month 1): white powder
Content ([3]; month 1): 99.6%
Related substances ([3]; month 1): 0.07%
Appearance ([3]; month 2): white powder
Content ([3]; month 2): 99.6%
Related substances ([3]; month 2): 0.08%
Appearance ([3]; month 3): white powder
Content ([3]; month 3): 99.6%
Related substances ([3]; month 3): 0.08%
Appearance ([3]; month 6): white powder
Content ([3]; month 6): 99.5%
Related substances ([3]; month 6): 0.09%
Physical and chemical characteristic in accelerated test (in words) [3]: relatively stable
Change of content (in words) [4]: decreased slightly
Change of related substances (in words) [4]: increased slightly
Crystal transformation [4]: not found
Change of relative substances of bulk drug in the formulation (in words) [5]: didn't increase; also recorded: no significantly changes
Relative substances ([5]; bulk drug vs capsules and tablets of Examples 3 and 4): 0.07%
Change of crystalline form after being formulated [5]: no substantially change; also recorded: substantially no change
Behaviour in a sealed surrounding with strong dehydrating agent ([6]; allochroic silicagel, phosphorus pentoxide etc.): lose crystal water (partly to all) step by step
Behaviour of the polymorph losing part crystal moisture in air environment ([6]; put in air environment): return to the Polymorph I with one crystal water step by step

Cc1nc(Nc2ncc(C(=O)Nc3c(C)cccc3Cl)s2)cc(N2CCN(CCO)CC2)n1 [Polymorph II, N-(2-chloro-6-methylphenyl)-2-[[6-[4-(2-hydroxyethyl)-1-piperazinyl]-2-methyl-4-pyrimidyl]amino]-5-thiazolformamide]
Content ([1]; day 0): 99.8%
Related substance ([1]; day 0): 0.06%
Content ([1]; day 5): 99.6%
Related substance ([1]; day 5): 0.22%
Content ([1]; day 10): 99.3%
Related substance ([1]; day 10): 0.36%
Change of appearance in photostability test (in words) ([1]; summary of 10-day test): no obvious change
Change of content in photostability test (in words) ([1]; summary of 10-day test): of some drop
Change of related substances in photostability test (in words) ([1]; summary of 10-day test): increased slightly
Content ([2]; day 0): 99.8%
Related substance ([2]; day 0): 0.06%
Content ([2]; day 5): 99.7%
Related substance ([2]; day 5): 0.11%
Content ([2]; day 10): 99.4%
Related substance ([2]; day 10): 0.16%
Change of appearance in high temperature test (in words) [2]: few obvious change
Change of content in high temperature test (in words) [2]: few obvious change
Appearance ([3]; month 0): white powder
Content ([3]; month 0): 99.8%
Related substances ([3]; month 0): 0.06%
Appearance ([3]; month 1): white powder
Content ([3]; month 1): 99.7%
Related substances ([3]; month 1): 0.07%
Appearance ([3]; month 2): white powder
Content ([3]; month 2): 99.8%
Related substances ([3]; month 2): 0.08%
Appearance ([3]; month 3): white powder
Content ([3]; month 3): 99.6%
Related substances ([3]; month 3): 0.07%
Appearance ([3]; month 6): white powder
Content ([3]; month 6): 99.6%
Related substances ([3]; month 6): 0.08%
Physical and chemical characteristic in accelerated test (in words) [3]: of relative stability
Change of relative substances of bulk drug in the formulation (in words) [5]: didn't increase
Change of crystalline form after being formulated [5]: no substantially change
